These are literature values, as cited in patent US20200080027A1, “ADVANCED NOVEL ECO-FRIENDLY COMPOSITIONS” (priority 2015, published 2020).

The conditions of data set [1]: skin contact.
For the next data set, the system named is human. The settings on record: human consumption.
A further data set relates to normal volunteers. The conditions noted are these: 15 g/day for 10 days, 18 normal volunteers.

Regarding `[K+].[OH-]` [Potassium hydroxide], in data set [1], the “concentration of solution that is corrosive” value is listed as “higher than 2%”.

Regarding `C/C=C/C=C/C(=O)[O-].[K+]` [Potassium sorbate], the “maximum acceptable daily intake” value in the data set with human was 25 mg/kg. For the same molecule, the solubility in water (at 20° C.) was 58.2%. Also, the carcinogenic effects result with rats is given as “not been found to have any carcinogenic effects”. Besides, the “genotoxicity / mutagenicity in vitro” value in the data set with human blood cells is “both genotoxic and mutagenic”.

`O=C([O-])c1ccccc1.[Na+]` [Sodium benzoate]: in the data set with humans, the “doses with no adverse effects in humans” value is listed as 647-825 mg/kg of body weight per day.

Consider Span 80, for which the “water solubility” value was “insoluble in water”.

On to Xanthan gum, for which the laxative effect result in the data set with normal volunteers is listed as “highly efficient laxative”.
